Results on 16 compounds are retold here after patent publication US12344610B2, “APOL1 inhibitors and methods of use” (Maze Therapeutics, Inc., priority 2022, dated 2025).

Common to all, as to assay type: cell-based
The subject of test [1] is HEK293 cells overexpressing APOL1 G2. The test is described as follows: APOL1 G2 HEK293 cell rescue assay (reversal of cell death caused by overexpression of APOL1). The conditions noted are these: Homo sapiens, HEK293, HEK293 overexpressing APOL1 G2; geometric mean of at least 2 assay runs; † = single assay run. In short, it runs like this: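 EC50 is the half-maximal effective concentration for reversing cell death driven by APOL1 G2 overexpression in HEK293 cells. Reported as geometric mean of at least 2 runs on separate days, each run averaging duplicate wells per plate; some values from a single run.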

The test system of test [2] is HEK293 clonal cell line overexpressing APOL1 G1. The test is described as follows: APOL1 G1 HEK293 cell rescue assay (Example B3). The conditions noted are these: Homo sapiens, HEK293, HEK293 clonal line overexpressing APOL1 G1; geometric mean of at least 2 runs; † = single run; ¥ = concentration at 50% rescue estimated (no sigmoidal curve). In short, it runs like this:
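HEK293 clonal line overexpressing APOL1 G1; EC50 is half-maximal reversal of APOL1-induced cell death. Values are the geometric mean of ≥2 runs on separate days, each run the average of duplicate wells. Where no sigmoidal curve could be fitted, the concentration giving 50% rescue was estimated.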

For the next test, the target named is T1, APOL1 G2 (Homo sapiens, UniProt O14791, DEL388-389).
T1 construct: expressed in transfected cells; host or cells: HEK293 T-REx clonal line stably expressing GCaMP6f (HEK T-REx/GCaMP6f/APOL1 G2 K6.3), doxycycline induced
T1 sequence (O14791 with tags, fused parts or gaps DEL388-389): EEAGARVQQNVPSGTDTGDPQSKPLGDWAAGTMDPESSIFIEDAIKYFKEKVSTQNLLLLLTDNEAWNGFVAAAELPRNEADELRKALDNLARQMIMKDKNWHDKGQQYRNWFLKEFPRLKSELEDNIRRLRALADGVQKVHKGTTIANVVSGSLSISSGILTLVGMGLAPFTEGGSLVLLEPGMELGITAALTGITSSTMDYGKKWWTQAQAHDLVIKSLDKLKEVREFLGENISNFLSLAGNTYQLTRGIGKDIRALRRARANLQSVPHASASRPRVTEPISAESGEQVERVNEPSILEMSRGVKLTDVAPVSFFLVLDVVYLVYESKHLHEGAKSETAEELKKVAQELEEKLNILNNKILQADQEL
The test is described as follows: APOL1-mediated calcium transport (calcium influx) assay, HEK T-REx/GCaMP6f/APOL1 G2 K6.3 cells, FLIPR TETRA. The conditions noted are these: prevention of calcium influx; geometric mean of at least 2 assay runs; † = average of a technical replicate from a single assay run. How it is done:
A HEK293 clonal cell line was generated to stably express GCaMP6f, a genetically encoded calcium indicator, and inducibly express APOL1 G2 (HEK T-REx/GCaMP6f/APOL1 G2 K6.3). Cells were maintained in the following standard complete medium: DMEM with 4.5 g/L glucose and sodium pyruvate (BioWhittaker, Lonza, BE12-614F), supplemented with 10% FBS Performance Plus (Gibco, 16000044), 1% penicillin-streptomycin (BioWhittaker, DE17-602E), 2 mM ultraglutamine-1 (BioWhittaker cat. BE 17-605/U1), 50 μg/mL Zeocin (InvivoGen, ant-zn), 2.5 μg/mL Blasticidin (InvivoGen, ant-bl-5), and 25 μg/mL Hygromycin (InvivoGen, ant-hg). Standard propagation conditions consisted of plating 9×10^6, 4×10^6, 2×10^6 cells in a T225 flasks to be processed after 2, 3, or 4 days, respectively.
A source plate was generated containing 20 serially diluted compounds in DMSO (duplicate 8-point dose response). Next, 0.8 μL of compounds were transferred from the source plate to a destination plate prefilled with 79.2 μL of Ca^2+ free Tyrode's buffer (130 mM NaCl, 5 mM KCl, 1 mM MgCl2, 5 mM NaHCO3, 20 mM HEPES at pH 7.4). The destination plate was placed on a plate shaker (5 seconds at 2000 rpm) to mix. […] All transfer and mixing steps were conducted with an CyBi®-Well dispenser.
Cells were split by gently washing with DPBS (Euroclone, ECB4004L), followed by a 5-minute incubation (humidified, 37° C. with 5% CO2) with trypsin-EDTA solution (Euroclone, ECB3052D). Detached cells were diluted with standard complete medium without selective agents, counted, and plated in a 384 MTP microplate (GR4332CPL, Twin Helix) (10,000 cells/well in 25 μl/well) using a MATRIX WellMate dispenser. Plates were placed into a humidified incubator (37° C. with 5% CO2) overnight. The following day, 20 μL of doxycycline (Sigma, D9891) at 20 ng/mL in standard complete medium was added to cells with a CyBi® Drop dispenser to induce APOL1 G2 expression. After a 6-hour incubation (humidified, 37° C. with 5% CO2), cells were washed 3 times with Ca^2+ free Tyrode's Buffer (130 mM NaCl, 5 mM KCl, 1 mM MgCl2, 5 mM NaHCO3, 20 mM HEPES at pH 7.4) using a BIOTEK Microplate washer, such that 10 μL of buffer remained in each well after the final wash. Assay plates were then stored at room temperature for 10 minutes. Next, 10 μL of diluted compounds were transferred to the assay plate from the 2× compound plate using a CyBi®-Well dispenser. Compound incubation was then carried out at room temperature for 10 minutes. The assay plate was transferred to the FLIPR^TETRA and 20 μL of 10 mM Ca^2+ (final concentration=5 mM) Tyrode's buffer was injected.
Unless otherwise specified, AC50 and values are reported as the geometric mean of at least 2 assay runs on separate days. Each run represents the average of a technical replicate, where each compound was assayed twice in the same plate. A superscript t symbol indicates a value from the average of a technical replicate from a single assay run, where each compound was assayed twice in the same plate.
The AC50 values in Table 39 below reflect the compound's ability to prevent calcium influx by inhibiting APOL1. […] Compounds in Table 39 are referred to by the corresponding Compound Number in Table 1, which is also referred to in the synthetic examples. When one or more of the numbered compounds are identified by stereochemistry (for example, (R)- or (S)-), the specific stereoisomer for which data is provided in Table 39 may be identified by the elution order of such compound as described in the synthetic examples. For example, Compounds 39 and 40 are associated with Step 5 of Example 13, where Compound 39 is the first eluting enantiomer, and Compound 40 is the second eluting enantiomer in the chiral separation of Compound 38. For Table 39 below, n/a represents “not available”.

Structures are written as SMILES. pEC50: −log10 of the molar value.

By pEC50 is commonly meant −log10 of the EC50, conventionally taken in molar units. The term AC50 denotes the concentration at which the activity in the assay is half-maximal. For the compound `CN1C(=O)C2(CCN(CCOc3ccc4ncn(C)c(=O)c4c3)CC2)c2ccccc21` [Compound 29, 1-methyl-1′-{2-[(3-methyl-4-oxo-3,4-dihydroquinazolin-6-yl)oxy]ethyl}-1,2-dihydrospiro[indole-3,4′-piperidin]-2-one], the pEC50 in test [1] was 5.85; in test [2], 5.25. Further, the concentration at half-maximal activity (AC50) at APOL1 G2 was 586 nM.

`CN1Cc2cc(OCCN3CCC4(CC3)C(=O)N(C)c3ccccc34)ccc2C1=O` [Compound 30, 1-methyl-1′-{2-[(2-methyl-1-oxo-2,3-dihydro-1H-isoindol-5-yl)oxy]ethyl}-1,2-dihydrospiro[indole-3,4′-piperidin]-2-one]: the pEC50 is 5.83 in test [1] and under 4.65 in test [2]. The AC50 at APOL1 G2 worked out at 409 nM.

`CN1C(=O)C2(CCN(CCOc3ccc(-c4cnn(C)c4)cc3)CC2)c2ccccc21` [Compound 31, 1-methyl-1′-{2-[4-(1-methyl-1H-pyrazol-4-yl)phenoxy]ethyl}-1,2-dihydrospiro[indole-3,4′-piperidin]-2-one]: the pEC50 in test [1] was 6.09; in test [2], 5.80. For the same compound, at APOL1 G2, the AC50 is 370 nM.

Regarding `CN1C(=O)C2(CCN(CCOc3ccc4c(c3)CCS4(=O)=O)CC2)c2ccccc21` [Compound 32, 5-(2-{1-methyl-2-oxo-1,2-dihydrospiro[indole-3,4′-piperidin]-1′-yl}ethoxy)-2,3-dihydro-1λ^6-benzothiophene-1,1-dione], the pEC50 is 6.11 in test [1] and 5.73 in test [2]. Also, at APOL1 G2, the AC50 turned out to be 262 nM.

Turning to `CN1C(=O)Cc2cc(OCCN3CCC4(CC3)C(=O)N(C)c3ccccc34)ccc21` [Compound 33, 1-methyl-1′-{2-[(1-methyl-2-oxo-2,3-dihydro-1H-indol-5-yl)oxy]ethyl}-1,2-dihydrospiro[indole-3,4′-piperidin]-2-one], the pEC50 in test [1] was 5.97; in test [2], under 5.46. In addition, the AC50 on APOL1 G2 amounted to 218 nM.

In the case of `CN1C(=O)C2(CCN(CCOc3ccc4nccnc4c3)CC2)c2ccccc21` [Compound 34, 1-methyl-1′-[2-(quinoxalin-6-yloxy)ethyl]-1,2-dihydrospiro[indole-3,4′-piperidin]-2-one], the values for the pEC50 in test [1] and in test [2] were 5.88 and under 5.71, respectively. The AC50 at APOL1 G2 is 168 nM.

Consider `CN1C(=O)C2(CCN(CCOc3ccc(N4CCCC4=O)cc3)CC2)c2ccccc21` [Compound 37, 1-methyl-1′-{2-[4-(2-oxopyrrolidin-1-yl)phenoxy]ethyl}-1,2-dihydrospiro[indole-3,4′-piperidin]-2-one], for which the pEC50 in test [1] was 5.89; in test [2], 6.16. In addition, at APOL1 G2, the AC50 came out at 327 nM.

Take `CC(c1ccc(OCCN2CCC3(CC2)C(=O)Nc2ccc(Cl)cc23)cc1)S(C)(=O)=O` (stereo not drawn) [Compound 38, 5-chloro-1′-{2-[4-(1-methanesulfonylethyl)phenoxy]ethyl}-1,2-dihydrospiro[indole-3,4′-piperidin]-2-one]: the values for the pEC50 in test [1] and in test [2] were 7.23 and 6.65, respectively. Moreover, at APOL1 G2, the AC50 is 307 nM.

As to `CS(=O)(=O)CCCS(=O)(=O)c1ccc(OCCN2CCC3(CC2)C(=O)Nc2ccc(Cl)cc23)cc1` [Compound 41, 5-chloro-1′-{2-[4-(3-methanesulfonylpropanesulfonyl)phenoxy]ethyl}-1,2-dihydrospiro[indole-3,4′-piperidin]-2-one], the pEC50 in test [1] was 7.01; in test [2] it was 6.51. For the same compound, the AC50 on APOL1 G2 stood at 709 nM.

In the case of `NC(=O)c1ccc(OCCN2CCC3(CC2)C(=O)Nc2ccc(Cl)cc23)cn1` [Compound 47, 5-(2-{5-chloro-2-oxo-1,2-dihydrospiro[indole-3,4′-piperidin]-1′-yl}ethoxy)pyridine-2-carboxamide], the pEC50 in test [1] was 6.83; in test [2] it was 6.40. At APOL1 G2, the AC50 came to 641 nM.

For the compound `CS(=O)(=O)c1ccc(OCCN2CCC3(CC2)C(=O)Nc2ccc(Cl)cc23)c(F)c1` [Compound 48, 5-chloro-1′-[2-(2-fluoro-4-methanesulfonylphenoxy)ethyl]-1,2-dihydrospiro[indole-3,4′-piperidin]-2-one], the results for the pEC50 in test [1] and in test [2] were 6.70 and 6.35, respectively. On APOL1 G2, the AC50 stood at 567 nM.

`CN(C)C(=O)c1ccc(OCCN2CCC3(CC2)C(=O)Nc2ccc(Cl)cc23)cn1` [Compound 51]: the negative logarithm of the EC50 (pEC50) was 6.67 in test [1] and 5.90 in test [2]. In addition, the AC50 at APOL1 G2 turned out to be 953 nM.

For `CNC(=O)c1ccc(OCCN2CCC3(CC2)C(=O)Nc2ccc(Cl)cc23)cc1` [Compound 52, 4-(2-{5-chloro-2-oxo-1,2-dihydrospiro[indole-3,4′-piperidin]-1′-yl}ethoxy)-N-methylbenzamide], the pEC50 was 6.67 in test [1] and 5.97 in test [2]. Moreover, the AC50 on APOL1 G2 came to 615 nM.

Turning to `CS(=O)(=O)N1Cc2ccc(OCCN3CCC4(CC3)C(=O)Nc3ccc(Cl)cc34)cc2C1` [Compound 54, 5-chloro-1′-{2-[(2-methanesulfonyl-2,3-dihydro-1H-isoindol-5-yl)oxy]ethyl}-1,2-dihydrospiro[indole-3,4′-piperidin]-2-one], the pEC50 was 7.04 in test [1] and 6.41 in test [2]. The AC50 at APOL1 G2 came to 804 nM.

For the compound `CN1C(=O)C2(CCN(CCOc3ccc4c(c3)CCN(S(C)(=O)=O)C4)CC2)c2ccccc21` [Compound 55, 1′-{2-[(2-methanesulfonyl-1,2,3,4-tetrahydroisoquinolin-6-yl)oxy]ethyl}-1-methyl-1,2-dihydrospiro[indole-3,4′-piperidin]-2-one], the pEC50 was 6.01 in test [1] and 5.92 in test [2]. For the same compound, the concentration at half-maximal activity (AC50) on APOL1 G2 was under 284 nM.

Regarding `CC(=O)N1CCc2cc(OCCN3CCC4(CC3)C(=O)N(C)c3ccccc34)ccc2C1` [Compound 58, 1′-{2-[(2-acetyl-1,2,3,4-tetrahydroisoquinolin-6-yl)oxy]ethyl}-1-methyl-1,2-dihydrospiro[indole-3,4′-piperidin]-2-one], the pEC50 in test [1] is 5.88; in test [2], 5.67. In addition, the concentration at half-maximal activity (AC50) on APOL1 G2 is under 320 nM.
